Reference: ChEMBL document CHEMBL1143546, “Novel heterocyclic glucocorticoids: in vitro profile and in vivo efficacy” (Bioorg Med Chem Lett, 2005)

Tests used:
Glucocorticoid receptor [1] = biological target: T1, Glucocorticoid receptor (Homo sapiens, UniProt P04150); experiment: Inhibition of GR-mediated tyrosine amino transferase activity in human HepG2 cells; format: cell-based
T1 sequence (P04150 whole entry): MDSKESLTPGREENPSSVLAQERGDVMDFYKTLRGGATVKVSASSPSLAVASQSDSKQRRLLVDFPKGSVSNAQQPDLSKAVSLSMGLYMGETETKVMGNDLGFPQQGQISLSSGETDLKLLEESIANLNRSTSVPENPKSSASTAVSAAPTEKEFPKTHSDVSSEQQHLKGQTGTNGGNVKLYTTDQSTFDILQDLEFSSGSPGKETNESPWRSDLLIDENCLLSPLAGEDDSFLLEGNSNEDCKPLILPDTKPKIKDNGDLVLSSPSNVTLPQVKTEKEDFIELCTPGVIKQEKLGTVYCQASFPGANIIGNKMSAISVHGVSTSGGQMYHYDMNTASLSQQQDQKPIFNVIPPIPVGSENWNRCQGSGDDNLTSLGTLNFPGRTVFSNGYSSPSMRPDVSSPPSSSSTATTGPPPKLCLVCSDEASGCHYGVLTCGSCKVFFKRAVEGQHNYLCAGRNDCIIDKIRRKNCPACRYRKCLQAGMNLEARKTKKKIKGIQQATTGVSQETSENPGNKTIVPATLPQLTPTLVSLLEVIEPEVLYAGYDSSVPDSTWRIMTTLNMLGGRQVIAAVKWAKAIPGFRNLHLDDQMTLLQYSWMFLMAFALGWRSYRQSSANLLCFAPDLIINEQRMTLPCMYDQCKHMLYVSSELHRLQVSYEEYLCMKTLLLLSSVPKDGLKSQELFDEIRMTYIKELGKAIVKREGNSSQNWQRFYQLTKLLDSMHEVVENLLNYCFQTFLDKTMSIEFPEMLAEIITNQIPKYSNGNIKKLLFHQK

Glucocorticoid receptor [2] = biological target: T2, Glucocorticoid receptor (Mus musculus, UniProt P06537); experiment: Inhibition of mouse glutamine synthetase by GR-mediated transactivation in C2C12 cells; format: cell-based
T2 sequence (P06537 whole entry): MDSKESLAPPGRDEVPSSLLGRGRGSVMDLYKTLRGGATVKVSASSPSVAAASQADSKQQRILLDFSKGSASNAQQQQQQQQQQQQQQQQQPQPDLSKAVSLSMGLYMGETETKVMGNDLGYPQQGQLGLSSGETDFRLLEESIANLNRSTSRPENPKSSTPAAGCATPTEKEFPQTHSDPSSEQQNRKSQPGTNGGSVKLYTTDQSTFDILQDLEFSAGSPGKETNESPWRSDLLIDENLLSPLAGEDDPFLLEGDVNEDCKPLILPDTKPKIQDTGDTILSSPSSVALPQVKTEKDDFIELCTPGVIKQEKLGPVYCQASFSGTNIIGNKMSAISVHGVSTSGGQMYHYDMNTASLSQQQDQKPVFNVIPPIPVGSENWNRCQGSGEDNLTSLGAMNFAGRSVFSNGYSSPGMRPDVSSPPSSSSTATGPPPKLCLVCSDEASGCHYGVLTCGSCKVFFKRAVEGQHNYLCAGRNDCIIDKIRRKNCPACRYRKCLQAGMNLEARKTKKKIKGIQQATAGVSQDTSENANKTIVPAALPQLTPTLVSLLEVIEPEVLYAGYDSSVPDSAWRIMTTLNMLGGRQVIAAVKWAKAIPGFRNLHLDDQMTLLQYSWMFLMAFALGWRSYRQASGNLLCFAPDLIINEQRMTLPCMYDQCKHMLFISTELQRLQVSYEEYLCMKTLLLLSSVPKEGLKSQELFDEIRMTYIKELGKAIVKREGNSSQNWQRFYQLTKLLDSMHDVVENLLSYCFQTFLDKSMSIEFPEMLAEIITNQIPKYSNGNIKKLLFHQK

Glucocorticoid receptor [3] = biological target: T2, Glucocorticoid receptor; experiment: GR-mediated transrepression of IL-6 in peritoneal exudate cells harvested from C57BI/6 mice; format: cell-based
Glucocorticoid receptor [4] = biological target: T1, Glucocorticoid receptor; experiment: GR-mediated transrepression of IL-6 in human A549 lung carcinoma cells; format: functional, cell-based
Glucocorticoid receptor [5] = biological target: T1, Glucocorticoid receptor; experiment: Inhibition of human glucocorticoid receptor alpha by displacement of [3H]dexamethasone
[6] = biological target: T3, Glucocorticoid receptor (Mus musculus) (UniProt P06537); experiment: Percent absolute inhibition of LPS-induced tumor necrosis factor alpha release in mice at 3 mg/kg dose; format: organism-based; set-up: dose 3 mg/kg
T3 sequence (whole entry): T2 sequence (P06537 whole entry)

[7] = biological target: T3, Glucocorticoid receptor (Mus musculus); experiment: Percent inhibition of LPS-induced tumor necrosis factor alpha release in mice relative to prednisolone at 3 mg/kg dose; format: organism-based; set-up: dose 3 mg/kg

| SMILES | EC50 (Glucocorticoid receptor [1]) [nM] | EC50 (Glucocorticoid receptor [2]) [nM] | EC50 (Glucocorticoid receptor [3]) [nM] | EC50 (Glucocorticoid receptor [4]) [nM] | IC50 (Glucocorticoid receptor [5]) [nM] | inhibition [6] [%] | inhibition [7] [%] |
| --- | --- | --- | --- | --- | --- | --- | --- |
| C[C@]12Cc3cnn(-c4ccc(F)cc4)c3C=C1CCC[C@@H]2[C@H](O)c1csc2ccccc12 | 356 | 3 | 11 | 6 | 1.5 | – | – |
| C[C@]12Cc3cnn(-c4ccc(F)cc4)c3C=C1CCC[C@@H]2[C@@H](O)c1cc(Cl)sc1Cl | – | – | 120 | 31 | 10.2 | – | – |
| C[C@]12Cc3cnn(-c4ccc(F)cc4)c3C=C1CCC[C@@H]2[C@@H](O)c1ccc(F)nc1 | – | 260 | 12 | 13 | 13.6 | – | – |
| C[C@]12Cc3cnn(-c4ccc(F)cc4)c3C=C1CCC[C@@H]2[C@@H](O)c1csc2ccccc12 | – | – | 54 | 18 | 5.1 | – | – |
| C[C@]12Cc3cnn(-c4ccc(F)cc4)c3C=C1CCC[C@@H]2[C@@H](O)c1ccncc1 | – | – | 215 | 38 | 23.2 | – | – |
| C[C@]12Cc3cnn(-c4ccc(F)cc4)c3C=C1CCC[C@@H]2[C@@H](O)Cc1ccc(F)cc1 | – | 17 | 3.7 | – | 4.6 | – | – |
| C[C@]12Cc3cnn(-c4ccc(F)cc4)c3C=C1CCC[C@@H]2[C@@H](O)c1cccs1 | – | – | 21 | 37 | 7.1 | – | – |
| C[C@]12C=CC(=O)C=C1CC[C@@H]1[C@@H]2[C@@H](O)C[C@@]2(C)[C@H]1CC[C@]2(O)C(=O)CO [PREDNISOLONE] | – | – | 5.7 | – | – | 71 | 100 |
| COc1cc([C@H](O)[C@H]2CCCC3=Cc4c(cnn4-c4ccc(F)cc4)C[C@@]32C)cc(F)c1F | – | – | 15 | – | – | – | – |
| C[C@]12Cc3cnn(-c4ccc(F)cc4)c3C=C1CCC[C@@H]2[C@@H](O)c1ccoc1 | – | – | 45 | 2.7 | 2.9 | – | – |
| C[C@]12Cc3cnn(-c4ccc(F)cc4)c3C=C1CCC[C@@H]2[C@](C)(O)c1ccsc1 | – | 8.3 | 5.2 | 0.96 | – | – | – |
| C[C@]12Cc3cnn(-c4ccc(F)cc4)c3C=C1CCC[C@@H]2[C@@H](O)c1ccc(Cl)s1 | 1070 | 34 | 17 | 13 | 7.6 | – | – |
| C[C@]12Cc3cnn(-c4ccc(F)cc4)c3C=C1CCC[C@@H]2[C@@H](O)c1cc2ccccc2s1 | – | 1210 | – | 19 | – | – | – |
| C[C@]12Cc3cnn(-c4ccc(F)cc4)c3C=C1CCC[C@@H]2[C@H](O)c1ccc(F)nc1 | 4440 | 23 | 5 | 21 | 9.1 | – | – |
